These are literature values, as cited in patent US20220031737A1, “PHARMACEUTICAL COMPOSITIONS COMPRISING CHROMIUM AND CARBOHYDRATE BLOCKERS” (GluCare LLC, priority 2016, published 2022).

For series [1] the following is noted: Sprague-Dawley rats, gavage, % of control.
The conditions of series [2]: 1,000 μg of chromium per day.
For series [3] the following is noted: overweight African-American females, caloric restriction and exercise combined with oral NBC.

Turning to `O=C[C@H](O)[C@@H](O)[C@@H](O)CO` [L-arabinose], in series [1], the “Glucose elevations above baseline over four hours following rice starch challenge, of control” value is 85%. Regarding `[Cr]` [chromium], in series [2], the “Relief of symptoms of type 2 diabetes” value is given as “highly effective”. In the case of niacin-bound chromium [NBC], the “Fat loss and muscle loss compared to control group without NBC supplement” value in series [3] was “increased fat loss and reduced muscle loss significantly”.
